≈ marks a conversion by molar mass, not a printed value. Read-outs that look alike come from different tables or passages of the source. Marks after values point to notes of the source that are not given here. Values belong to the compound of their own block, whether it stands above or below them.
Assays:
[1] = In vivo assay of body temperature increase (rectal body temperature); design: species or system rat; conditions: rats, oral, 10 mL/kg of 1 mg/mL in 0.5% methylcellulose; greatest ΔTb versus vehicle control at 0.5, 1 or 2 hrs
Excerpt: Hyperthermia or undesirable elevation in animal body temperature is known to be an undesirable side-effect accompanying the administration of certain TRPV1 antagonists (Gavva, “Body-temperature maintenance as the predominant function of the vanilloid receptor TRPV1,” Trends Pharmacol. Sci. 29(11):550-557 (2008)).
Test Animals: Selection of rats (Crl/SD rats, 7 weeks, male) was based on rectal body temperature measured during the morning of the day of dosing as described below. In addition, to minimize spontaneous, stress-induced increases in body temperature, rats were acclimated in advance to both the rectal measurement procedure and to being handled and dosed. All lodging and testing took place in animal care laboratories with constant room temperature and humidity. The rats were free to move and ingest food and water throughout. Each rat was coded with a colored line on the tail, housed in a separate cage, and permitted the normal range of movement. Immediately before each body temperature measurement, a rat was transferred to a measurement cage. To reduce stress which could influence its body temperature, each rat was covered with towels during the measurement. A thermistor probe was then carefully inserted into the rectum of each rat and left in place until the temperature reading on the digital display had stabilized; this value was recorded.
Assay: On the day before dosing, rectal body temperature was measured at 9:00, 10:00, 11:00, 12:30, 13:30, 14:30, and 15:30 o'clock to familiarize the rats with the measurement procedure prior to administration of the test or control treatments. The rats were also dosed by oral gavage without vehicle at 12:30 o'clock to acclimate and familiarize them with the handling and dosing procedure.
On the day of dosing, only rats with rectal body temperatures within the range of from 37.0° C. to 37.7° C. were selected for study. Rectal body temperatures were measured at 9:00, 10:00, and 11:00 o'clock. Rats were excluded from the study if either their rectal body temperature was over 37.9° C. at 10:00 o'clock or was outside the range of from 37.0° C. to 37.7° C. at 11:00 o'clock. The selected rats were divided into several groups based on their rectal body temperatures at 11:00 o'clock. Rectal body temperatures of the selected rats were measured again at 12:30 o'clock and any rat with a rectal body temperature of 38.0° C. or greater was also excluded from the study.
Following assignment to either a test or control group, a test compound or a control was administered to the rats. Each test compound was dissolved in a vehicle of 0.5% aqueous methylcellulose solution and the final concentration of the test compound was adjusted to 1 mg/mL. Each test compound was orally administered once at a dose of 10 mL/kg. The same volume of the control (vehicle only) was administered once to the control group. Rectal body temperatures were measured at the following time points: 0.5, 1, and 2 hrs after administration.
The body temperature increase (ΔTb) for each test compound was calculated by subtracting, at each time point, the average temperature of the control group from the average temperature of the group administered that test compound. The greatest ΔTb obtained for each test compound at any of the time points is shown in Table 11 below, along with the ΔTb of the control.

[2] = Aqueous solubility at pH 1.2 and pH 6.8; type: physicochemical; conditions: aqueous solution
[3] = test system: FCA-induced inflammation of the rat hind paw; test: Freund's complete adjuvant (FCA) model of inflammatory pain, paw withdrawal threshold; type: in vivo; conditions: rat FCA, 20 mg/kg
Protocol: Test Animals: Each experiment uses rats weighing between 200-260 g at the start of the experiment. The rats are group-housed and have free access to food and water at all times, except prior to oral administration of a Compound of Formula (I) when food is removed for 16 hours before dosing. A control group acts as a comparison to rats treated with a Compound of Formula (I). The control group is administered the vehicle for the Compound of Formula (I). The volume of vehicle administered to the control group is the same as the volume of carrier and Compound of Formula (I) administered to the test group.
Inflammatory Pain: To assess the actions of a Compound of Formula (I) for the treatment or prevention of inflammatory pain, the Freund's complete adjuvant (“FCA”) model of inflammatory pain was used. FCA-induced inflammation of the rat hind paw is associated with the development of persistent inflammatory mechanical hyperalgesia and provides reliable prediction of the anti-hyperalgesic action of clinically useful analgesic drugs (Bartho et al., “Involvement of capsaicin-sensitive neurons in hyperalgesia and enhanced opioid antinociception in inflammation,” Naunyn-Schmiedeberg's Archives of Pharmacol. 342:666-670 (1990)). The right hind paw of each male, 6-week old Jcl:SD rat was administered a 50 μL intraplantar injection of 50% FCA (Sigma-Aldrich). 24 hour post-injection, the animal was assessed for response to noxious mechanical stimuli by determining the PWT, as described below. Rats were then administered a single injection of 0.1, 0.3, 1, 3, or 10 mg/kg of either the product prepared with Compound A155(a) and fumaric acid as described in Example 10, 20 mg/kg of an ibuprofen control (EMD Millipore Chemicals, Inc.), or vehicle as a control (0.5% weight/volume methylcellulose (400cP, Wako Pure Chemical Industries, Ltd., Osaka, Japan)/aqueous solution). […] Responses to noxious mechanical stimuli were then determined 1, 3, 5, and 7 hours post-administration. Percentage reversal of hyperalgesia for each animal was defined as: […]
With the exception of the controls (i.e., ibuprofen, vehicle) where the student's t-test was used, Dunnett's test was conducted for the % reversal. In either instance, values with p<0.05 were considered to be statistically significant. The % reversal results for administration of the product prepared with Compound A155(a) and fumaric acid as described in Example 10 and the respective controls are presented in Table 7.
Response to Mechanical Stimuli as an Assessment of Mechanical Hyperalgesia: The paw pressure assay was used to assess mechanical hyperalgesia. For this assay, hind paw withdrawal thresholds (PWT) to a noxious mechanical stimulus were determined using an analgesymeter (Model 37215, commercially available from Ugo Basile of Italy) as described in Stein, “Unilateral Inflammation of the Hindpaw in Rats as a Model of Prolonged Noxious Stimulation: Alterations in Behavior and Nociceptive Thresholds,” Pharmacol. Biochem. and Behavior 31:451-455 (1988). The maximum weight that could be applied to the hind paw was set at 250 g and the end point was taken as complete withdrawal of the paw. PWT was determined once for each rat at each time point and either only the affected (ipsilateral) paw was tested, or both the ipsilateral and contralateral (non-injured) paw were tested.

[4] = pH 1.2, read-out: aqueous solubility at pH 1.2
[5] = pH 6.8, read-out: aqueous solubility at pH 6.8

Compound: O=C(Nc1ccc(C(F)(F)F)cc1)N1CC=C(c2ncccc2Cl)CC1 [Compound 200]
- solubility [2, 4]: < 0.1 µM

Compound: O=C(Nc1ccc(C(F)(F)F)cc1)N1CCC(F)(c2ncccc2Cl)CC1 [Compound 203]
- aqueous solubility at pH 6.8 ([2]; pH 6.8): insoluble

Compound: O=C(Nc1ccc(C(F)(F)F)cc1)N1CCC(F)(c2ncccc2F)CC1 [Compound 207]
- aqueous solubility at pH 6.8 ([2]; pH 6.8): insoluble

Compound: O=C(Nc1ccc(C(F)(F)F)cc1)N1CC=C(c2ncccc2F)CC1 [Compound 208]
- aqueous solubility at pH 6.8 ([2]; pH 6.8): insoluble

Compound: O=C(Nc1ccc(C(F)(F)F)c(F)c1)N1CCC(F)(c2ncccc2Cl)CC1 [Compound 209]
- solubility [2, 4]: 9.3 µM (≈ 3.9 µg/mL)
- solubility [2, 5]: 1.0 µM (≈ 0.42 µg/mL)

Compound: O=C(Nc1ccc(S(=O)(=O)C(F)(F)F)cc1)N1CCC(F)(c2ncccc2Cl)CC1 [Compound 210]
- solubility [2, 4]: 2.0 µM (≈ 0.932 µg/mL)
- solubility [2, 5]: 0.4 µM (≈ 0.186 µg/mL)

Compound: O=C(Nc1ccc(OC(F)(F)F)cc1)N1CCC(F)(c2ncccc2Cl)CC1 [Compound 211]
- solubility [2, 4]: 1.3 µM (≈ 0.543 µg/mL)
- solubility [2, 5]: 0.4 µM (≈ 0.167 µg/mL)

Compound: O=C(Nc1ccc(C(F)(F)F)c(F)c1)N1CCC(F)(c2ncccc2F)CC1 [Compound 212]
- solubility [2, 4]: 10.3 µM (≈ 4.15 µg/mL)
- solubility [2, 5]: 1.9 µM (≈ 0.766 µg/mL)

Compound: O=C(Nc1ccc(C(F)(F)F)c(F)c1)N1CC=C(c2ncccc2Cl)CC1 [Compound 213]
- solubility [2, 4]: 39.6 µM (≈ 15.8 µg/mL)
- solubility [2, 5]: 0.8 µM (≈ 0.32 µg/mL)

Compound: O=C(Nc1ccc(OC(F)(F)F)cc1)N1CC=C(c2ncccc2Cl)CC1 [Compound 214]
- solubility [2, 4]: > 50 µM
- solubility [2, 5]: 1.8 µM (≈ 0.716 µg/mL)

Compound: O=C(Nc1ccc(C(F)(F)F)c(Cl)c1)N1CC=C(c2ncccc2F)CC1 [Compound 215]
- solubility [2, 4]: 9.6 µM (≈ 3.84 µg/mL)
- solubility [2, 5]: 0.6 µM (≈ 0.24 µg/mL)

Compound: O=C(Nc1nc2ccc(F)cc2s1)N1CCN(c2ncc([C@H](O)CO)cc2F)CC1 [DF]
- ΔTb, body temperature increase [1]: 0.5 °C

Compound: O=C(Nc1nc2ccc(F)cc2s1)N1CCN(c2ncc([C@H](O)CO)cc2C(F)(F)F)CC1 [DH]
- ΔTb, body temperature increase [1]: 0.9 °C

Compound: Cc1ccc2nc(NC(=O)N3CCN(c4ncc([C@H](O)CO)cc4Cl)CC3)sc2c1 [DJ]
- ΔTb, body temperature increase [1]: 0.9 °C

Compound: Cc1cc2nc(NC(=O)N3CCN(c4ncc([C@H](O)CO)cc4C)CC3)sc2cc1C [DM]
- ΔTb, body temperature increase [1]: 0.9 °C

Compound: Cc1cc([C@H](O)CO)cnc1N1CCN(C(=O)Nc2nc3ccc(Cl)cc3s2)CC1 [DN]
- ΔTb, body temperature increase [1]: 0.8 °C

Compound: COc1ccc2nc(NC(=O)N3CCN(c4ncc([C@H](O)CO)cc4Cl)CC3)sc2c1 [DP]
- ΔTb, body temperature increase [1]: 1.2 °C

Compound: CC(C)Cc1ccc(C(C)C(=O)O)cc1 (stereo not drawn) [Ibuprofen, ibuprofen, reference compound]
- % Reversal [mean] ([3]; 1 h after administration): 28.6^†† %
- % Reversal [mean] ([3]; 1 h after administration, listed as ibuprofen): 28.6%
- % Reversal [mean] ([3]; 3 h after administration): 41.5^†† %
- % Reversal [mean] ([3]; 3 h after administration, listed as ibuprofen): 41.5%
- % Reversal [mean] ([3]; 5 h after administration): 39.2^†† %
- % Reversal [mean] ([3]; 5 h after administration, listed as ibuprofen): 39.2%
- % Reversal [mean] ([3]; 7 h after administration): 32.5^†† %
- % Reversal [mean] ([3]; 7 h after administration, listed as ibuprofen): 32.5%

More lines, now with the values ahead:

- ΔTb, body temperature increase [1]: 0.8 °C
Compound: C[C@H]1CN(c2ncc([C@H](O)CO)cc2Cl)CCN1C(=O)Nc1nc2ccc(F)cc2s1 [AA]

- ΔTb, body temperature increase [1]: 0.6 °C
Compound: C[C@H]1CN(c2ncc([C@H](O)CO)cc2F)CCN1C(=O)Nc1nc2ccc(Cl)cc2s1 [AB]

- ΔTb, body temperature increase [1]: 0.7 °C
Compound: C[C@H]1CN(c2ncc([C@H](O)CO)cc2F)CCN1C(=O)Nc1nc2ccc(F)cc2s1 [AC]

- ΔTb, body temperature increase [1]: 0.6 °C
Compound: C[C@H]1CN(C(=O)Nc2nc3ccc(F)cc3s2)CCN1c1ncc([C@H](O)CO)cc1F [AD]

- ΔTb, body temperature increase [1]: 0.9 °C
Compound: C[C@H](O)[C@@H](O)c1cnc(N2CCN(C(=O)Nc3nc4ccc(F)cc4s3)[C@H](C)C2)c(Cl)c1 [BA]

- ΔTb, body temperature increase [1]: 0.7 °C
Compound: C[C@H](O)[C@@H](O)c1cnc(N2CCN(C(=O)Nc3nc4ccc(F)cc4s3)[C@H](C)C2)c(F)c1 [BC]

- ΔTb, body temperature increase [1]: 0.9 °C
Compound: C[C@@H]1CN(c2ncc([C@H](O)CO)cc2Cl)CCN1C(=O)Nc1nc2ccccc2s1 [DA]

- ΔTb, body temperature increase [1]: 1.1 °C
Compound: C[C@@H]1CN(c2ncc([C@H](O)CO)cc2F)CCN1C(=O)Nc1nc2ccccc2s1 [DB]

- ΔTb, body temperature increase [1]: 1.0 °C
Compound: C[C@@H]1CN(c2ncc([C@H](O)CO)cc2C(F)(F)F)CCN1C(=O)Nc1nc2ccccc2s1 [DC]

- ΔTb, body temperature increase [1]: 1.0 °C
Compound: O=C(Nc1nc2ccc(F)cc2s1)N1CCN(c2ncc([C@H](O)CO)cc2Cl)CC1 [DD]

- ΔTb, body temperature increase [1]: 1.3 °C
Compound: C[C@@H]1CN(c2ncc([C@H](O)CO)cc2Cl)CCN1C(=O)Nc1nc2ccc(F)cc2s1 [DE]

- ΔTb, body temperature increase [1]: 1.0 °C
Compound: C[C@@H]1CN(c2ncc([C@H](O)CO)cc2F)CCN1C(=O)Nc1nc2ccc(F)cc2s1 [DG]

- ΔTb, body temperature increase [1]: 0.8 °C
Compound: C[C@@H]1CN(c2ncc([C@H](O)CO)cc2C(F)(F)F)CCN1C(=O)Nc1nc2ccc(F)cc2s1 [DI]

- ΔTb, body temperature increase [1]: 0.7 °C
Compound: C[C@@H]1CN(c2ncc([C@H](O)CO)cc2F)CCN1C(=O)Nc1nc2cc(F)ccc2s1 [DK]

- ΔTb, body temperature increase [1]: 0.9 °C
Compound: Cc1cc2nc(NC(=O)N3CCN(c4ncc([C@H](O)CO)cc4F)C[C@H]3C)sc2cc1C [DL]

- ΔTb, body temperature increase [1]: 1.1 °C
Compound: COc1ccc2nc(NC(=O)N3CCN(c4ncc([C@H](O)CO)cc4F)C[C@H]3C)sc2c1 [DO]
